Experimental data published in paper PMC7938888, “Antidepressant drugs act by directly binding to TRKB neurotrophin receptors” (Cell, 2021).
Entries after “also recorded” stand apart in the source; their conditions may differ.

Tests used:
[1] = test system: GluR1 subunit of AMPA receptors; assay: Surface GluR1 ELISA in rat cortical cells; type: cell-based; conditions: TRKB inhibitors
Description: Briefly, the MG87.TRKB cells or primary cortical cells from rat or mouse embryos, cultivated in clear bottom 96-well plates (ViewPlate 96, Perkin Elmer), were washed with ice-cold PBS and fixed with 100μl of 4% PFA per well. […] Following washing, the samples were incubated with HRP-conjugated anti-goat or anti-rabbit IgG (1:5000 in blocking buffer) for 1h at RT. The cells were washed 4x with 200μl of PBS for 10 min each. Finally, the chemiluminescent signal generated by reaction with ECL was analyzed in a plate reader.

TRKB = TRKB (Mus musculus, UniProt P15209); assay: Cell-free ligand binding assay on immobilised TRKB from HEK293T lysates; set-up: wild-type GFP-tagged full length TRKB or the GFP-tagged Y433F TRKB mutant; host or cells: HEK293T; conditions: for displacement of biotinylated FLX from TRKB: biotinylated FLX 1 μM
Sequence of TRKB (P15209 32-821): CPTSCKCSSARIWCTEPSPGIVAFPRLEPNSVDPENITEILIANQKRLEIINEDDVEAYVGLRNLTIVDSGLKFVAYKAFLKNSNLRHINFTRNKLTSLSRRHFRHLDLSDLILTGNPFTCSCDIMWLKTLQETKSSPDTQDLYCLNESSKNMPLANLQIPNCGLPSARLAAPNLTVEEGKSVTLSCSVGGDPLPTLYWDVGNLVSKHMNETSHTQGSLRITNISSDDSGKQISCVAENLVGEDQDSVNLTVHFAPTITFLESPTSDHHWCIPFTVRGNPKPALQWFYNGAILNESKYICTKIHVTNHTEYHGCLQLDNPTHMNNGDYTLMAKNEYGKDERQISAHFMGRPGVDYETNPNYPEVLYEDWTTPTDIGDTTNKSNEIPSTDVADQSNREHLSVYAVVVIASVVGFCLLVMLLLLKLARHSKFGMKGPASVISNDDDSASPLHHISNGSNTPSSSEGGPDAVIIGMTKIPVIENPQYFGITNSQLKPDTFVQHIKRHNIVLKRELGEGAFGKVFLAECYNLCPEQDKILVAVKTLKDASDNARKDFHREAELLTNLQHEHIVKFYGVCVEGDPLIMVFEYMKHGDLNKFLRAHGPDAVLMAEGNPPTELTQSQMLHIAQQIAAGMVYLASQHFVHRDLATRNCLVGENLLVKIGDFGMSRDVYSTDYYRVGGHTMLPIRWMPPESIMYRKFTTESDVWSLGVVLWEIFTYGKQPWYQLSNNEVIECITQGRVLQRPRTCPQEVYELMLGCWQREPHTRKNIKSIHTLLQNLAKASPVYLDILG
Description: (§1) The cell-free assays (binding assays) were performed in white 96-well plates, based on the protocol used for western-blotting or ELISA ([Baeza-Raja et al., 2016]; [Das et al., 2015]). The plates were precoated with anti-GFP, anti-FLAG, anti-TRK or anti-TRKB antibody (1:1000) in carbonate buffer (pH 9.8), ON at 4°C. Following blocking with 3% BSA in PBS buffer (2 h at RT), 120 ug of total protein from each sample (of lysates from HEK293T cells transfected to overexpress GFP-TRKB.wt or GFP-TRKB.Y433F) were added and incubated overnight at 4°C under agitation. […] The luminescence was determined via HRP-conjugated streptavidin (1:10000, 1h, RT) activity reaction with ECL by a plate reader. The luminescence signal from blank wells (containing all the reagents but the sample lystates, substituted by the blocking buffer) was used as background. The specific signal was then calculated by subtracting the values of blank wells from the values of the samples with matched concentration of the biotinylated ligand. For Figure 2E, the precipitated TRKB.wt or Y433F was incubated with tritiated imipramine (0-30μM) and the radioactive emission of the ligand was determined by scintillation (OptiPhase Supermix cocktail: #1200-439; MicroBeta2, Perkin-Elmer). The scintillation signal from blank wells was used as background, and the specific signal was then calculated by subtracting the values of blank wells from the values of the samples with matched concentration of the radioactive ligand.

[2] = test system: TRKB autophosphorylation (TRKB:pY); assay: TRKB:pY ELISA in cultured cortical cells; type: cell-based, rat; conditions: for rescue of BDNF-induced pTRKB response under high CHOL: cholesterol 50 μM, drug 10 μM 15 min, BDNF 10 ng/ml 15 min
Description: (§2) The TRKB:pY (phosphorylated TRKB), TRKB:PLC-γ1, PLC-γ1:pTRKB.Y816 interactions and were determined by ELISA, based on the general method described in literature ([Antila et al., 2014]; [Fred et al., 2019]), with minor adjustments. Briefly, white 96-well plates (OptiPlate 96F-HB, Perkin Elmer) were coated with capturing anti-TRKB or PLC-γ1 antibody (1:1000) in carbonate buffer (pH = 9.8) overnight (ON) at 4°C. Following a blocking step with 2%BSA in TBS-T (2 h, RT), samples were incubated ON at 4°C. The incubation with antibody against pTRKB.Y816, PLC-γ1 or pY (1:2000, ON, 4°C) was followed by HRP-conjugated anti-Rb IgG (1:5000, 2h, RT) or HRP-conjugated streptavidin (1:10000, 2h, RT). Finally, the chemiluminescent signal generated by the reaction with ECL was analyzed in a plate reader (Varioskan Flash, Thermo Scientific).

TRKB:PLC-γ1 interaction [3] = assay: TRKB:PLC-γ1 interaction ELISA in cortical cells; type: cell-based, rat
Description: as §2

TRKB.Y433F = target: T1, TRKB.Y433F (Mus musculus, UniProt P15209, Y433F); assay: Cell-free ligand binding assay, TRKB.Y433F mutant; conditions: tritiated imipramine, biotinylated R,R-HNK
T1 construct: wild-type GFP-tagged full length TRKB or the GFP-tagged Y433F TRKB mutant; host or cells: HEK293T
T1 sequence (P15209 32-821 Y433F): as the sequence (P15209 32-821) above, with Y402F counted along it
Description: as §1

surface TRKB = assay: Surface TRKB ELISA in primary cortical neurons; type: cell-based, rat
Description: The surface levels of TRKB were also determined by ELISA ([Zheng et al., 2008]). Briefly, the MG87.TRKB cells or primary cortical cells from rat or mouse embryos, cultivated in clear bottom 96-well plates (ViewPlate 96, Perkin Elmer), were washed with ice-cold PBS and fixed with 100μl of 4% PFA per well. After washing with PBS and blocking with PBS containing 5% nonfat dry milk and 5% BSA, the samples were incubated with primary anti-TRKB antibody (R&D Systems, #AF1494, 1:1000 in blocking buffer) or anti-GluR1 subunit of AMPA receptors (CST, #8850, 1:2000 in blocking buffer) ON at 4°C. Following washing, the samples were incubated with HRP-conjugated anti-goat or anti-rabbit IgG (1:5000 in blocking buffer) for 1h at RT. The cells were washed 4x with 200μl of PBS for 10 min each. Finally, the chemiluminescent signal generated by reaction with ECL was analyzed in a plate reader.

TRKB:PLC-γ1 interaction [4] = assay: TRKB:PLC-γ1 interaction ELISA in MG87 cells expressing TRKB; type: cell-based, mouse; conditions: bCDX 2 mM/30 min pre-treatment
Description: The cell line NIH 3T3 (mouse fibroblasts) stably transfected to express TRKB or TRKA (MG87.TRKB or MG87.TRKA, respectively) were used for in vitro assays ([Antila et al., 2014]), N2A and HEK293T cells were used to overexpress GFP-tagged TRKB for binding assays. The cells were maintained at 5% CO2, 37°C in Dulbecco’s Modified Eagle’s Medium (DMEM, containing 10% fetal calf serum, 1% penicillin/streptomycin, 1% L-glutamine, and, in the case of MG87.TRKB cells, with […] of G418). The cell lines used in the present study were not authenticated or genotyped for sex.
as §2, with “The incubation with antibody against pTRKB.Y816, PLC-γ1 or pY (1:2000, ON, 4°C) was followed by HRP-conjugated anti-Rb IgG (1:5000, 2h, RT) or HRP-conjugated streptavidin (1:10000, 2h, RT).” left out

[5] = target: GFP-tagged TRKB mutated at Y433 (GFP-TRKB.Y433F) (UniProt P15209); assay: ELISA; cell-free ligand binding assay in white 96-well plates: GFP-TRKB from 120 ug HEK293T lysate captured on antibody-coated wells (anti-GFP or anti-TRKB), washed, ligand added; read-out by HRP-streptavidin and ECL as told for biotinylated ligands; the conditions for BDNF are not told
Sequence of GFP-tagged TRKB mutated at Y433 (GFP-TRKB.Y433F) (P15209 32-821 Y433F): as the sequence (P15209 32-821) above, with Y402F counted along it

[6] = target: GFP-tagged TRKB wild type (GFP-TRKB.wt), neurotrophic tyrosine kinase receptor 2 (UniProt P15209); assay: as above
Sequence of GFP-tagged TRKB wild type (GFP-TRKB.wt), neurotrophic tyrosine kinase receptor 2 (P15209 32-821): as the sequence (P15209 32-821) above

O=C(Nc1ccccc1C(=O)NC1CCCCNC1=O)c1cc2ccccc2s1 (stereo not drawn) [ANA12]
effect on FLX- and R,R-HNK-induced increase in surface GluR1 [1]: prevented

N[C@]1(c2ccccc2Cl)CCC[C@H](O)C1=O [S,S-HNK, 2S,6S-HNK]
displacement of biotinylated FLX from TRKB (TRKB): weak, if any, displacement
displacement of bound R,R-HNK from TRKB (TRKB; biotinylated R,R-HNK 1 μM): failed to displace

CN(C)CCCN1c2ccccc2Sc2ccc(Cl)cc21 [chlorpromazine]
displacement of biotinylated FLX from TRKB (TRKB): weak, if any, displacement; also recorded: failed to displace
rescue of BDNF-induced pTRKB response under high CHOL [2]: failed to rescue

CN(C)CCOC(c1ccccc1)c1ccccc1 [diphenhydramine]
displacement of biotinylated FLX from TRKB (TRKB): weak, if any, displacement

CN[C@]1(c2ccccc2Cl)CCCCC1=O [esketamine, S-ketamine]
Ki (TRKB): 2860 nM

OCCN1CCN(CCC=C2c3ccccc3Sc3ccc(C(F)(F)F)cc32)CC1 [flupenthixol]
rescue of BDNF-induced pTRKB response under high CHOL [2]: failed to rescue

CN(C)CCCN1c2ccccc2CCc2ccccc21 [imipramine]
TRKB interaction with PLC-γ1 (TRKB:PLC-γ1 interaction [3]; rat cortical cells): increased TRKB interaction with PLC-γ1
affinity to TRKB.Y433F compared with wild-type TRKB (TRKB.Y433F): much lower than to the wild-type TRKB
Ki (TRKB): 1030 nM

CC(C)NCC(O)c1ccc(O)c(O)c1 (stereo not drawn) [isoproterenol]
displacement of biotinylated FLX from TRKB (TRKB): weak, if any, displacement

COC(=O)[C@@]1(O)C[C@H]2O[C@]1(C)n1c3ccccc3c3c4c(c5c6ccccc6n2c5c31)C(=O)NC4 [k252a]
effect on FLX- and R,R-HNK-induced increase in surface GluR1 [1]: prevented

O=C(NCCN1CCOCC1)c1ccc(Cl)cc1 [moclobemide]
Ki (TRKB): 1510 nM

O=c1[nH]c2ccccc2n1C1CCN(CCCC(c2ccc(F)cc2)c2ccc(F)cc2)CC1 [pimozide]
rescue of BDNF-induced pTRKB response under high CHOL [2]: failed to rescue

COc1ccc(C(CN(C)C)C2(O)CCCCC2)cc1 (stereo not drawn) [venlafaxine]
Ki (TRKB): 2080 nM
displacement of biotinylated FLX from TRKB (TRKB): readily displaced

OC[C@H]1O[C@@H]2O[C@H]3[C@H](O)[C@@H](O)[C@@H](O[C@H]4[C@H](O)[C@@H](O)[C@@H](O[C@H]5[C@H](O)[C@@H](O)[C@@H](O[C@H]6[C@H](O)[C@@H](O)[C@@H](O[C@H]7[C@H](O)[C@@H](O)[C@@H](O[C@H]8[C@H](O)[C@@H](O)[C@@H](O[C@H]1[C@H](O)[C@H]2O)O[C@@H]8CO)O[C@@H]7CO)O[C@@H]6CO)O[C@@H]5CO)O[C@@H]4CO)O[C@@H]3CO [βCDX, beta-cyclodextrin]
effect on BDNF-induced increase in TRKB-PLC-γ1 interaction (TRKB:PLC-γ1 interaction [3]; bCDX 2 mM, 30 min): prevents
effect on antidepressant-induced TRKB:PLC-γ1 interaction (TRKB:PLC-γ1 interaction [3]; bCDX 2 mM/30 min pretreatment, FLX, imipramine, KET, R,R-HNK): blocked
effect on fluoxetine-induced increase in TRKB surface exposure (surface TRKB): blocked
blockade of CHOL effect on TRKB:PLC-γ1 interaction (TRKB:PLC-γ1 interaction [4]): blocked
effect on block of BDNF-induced pTRKB by high cholesterol ([2]; bCDX 30 min, cholesterol 100 μM/15 min, BDNF 10 ng/ml/15 min): reverses the block

brain-derived neurotrophic factor (BDNF), biotinylated rh-BDNF (ligand)
Kd [5]: 0.0029 nM
Kd [6]: 0.0031 nM
